Like-named read-outs stand apart in the source and are kept apart here. Positions of bridges follow the written chain, without caps; N, C: chain ends. Residues, ends and D or L forms follow the SMILES beside them.
Columns and labels:
[1] = Variable temperature CD spectroscopy; assay type: physicochemical; conditions: 10 to 65 °C, oxidized product, 5 mM PB pH 7.0
Protocol: For CD analysis, a peptide sample was dissolved in 5 mM phosphate buffer (PB, pH7.0) with a concentration of 0.1–0.2 mg/mL. CD spectra were measured on the Chirascan Plus spectropolarimeter v.4.4.0 (Applied Photophysics Ltd, UK) by using a quartz cell of 1.0 mm thickness. The wavelengths used ranged from 190 to 260 nm. Data were collected at 1 nm intervals with a scan rate of 0.5 s per point and expressed as delta epsilon (cm^-1M^-1). Delta epsilon was calculated as [θ×(MRW×0.1)/(C×L)/3298], where θ is the ellipticity (in millidegrees), C is the concentration (in mg/mL), L is the path length (in cm), and MRW is the mean residue weight (in Da).
Fig. 4 Experiment data-guided structural model of DvirARP built by comparative modelling. (A) Comparison of CD spectra of reduced and oxidized DvirARP in 5 mM PB buffer (pH7.0). Signature bands for the presence of cation–π and 3_10-helix are denoted by arrows. (B) Thermal denaturation curves of the oxidized product at indicated temperatures. (C) Sequence comparison between DvirARP and the template MSL2 CXC (residues 542–559). Identical and conserved residues are shadowed in yellow and grey, respectively. Residues involved in cation–π interactions are underlined twice. The predicted secondary structure element and disulfide bridges are extracted from the experiment-based computational model. […] (E) The cation–π interaction on the DvirARP structure. […]

[2] = tested on: Methicillin-sensitive Staphylococcus aureus (MSSA) CGMCC 1.89; test: Inhibition-zone antimicrobial assay; assay type: cell-based; conditions: 1 nmol/well
[3] = tested on: S15 DNA (15-bp fragment derived from the MRE motif CES11D1); test: Electrophoretic mobility shift assay (EMSA); assay type: binding; conditions: 5 µM annealed double strand S15, DvirARP 2, 4 or 8 µM, room temperature 20 min, 6% native polyacrylamide, ethidium bromide staining
[4] = tested on: Bacillus megaterium CGMCC 1.0459
[5] = tested on: Micrococcus luteus CGMCC 1.0290

## CC[C@H](C)[C@H](NC(=O)[C@H](C)NC(=O)[C@H](CC(N)=O)NC(=O)[C@H](CCCNC(=N)N)NC(=O)[C@H](C)NC(=O)[C@H](CCCNC(=N)N)NC(=O)[C@H](CCCNC(=N)N)NC(=O)[C@H](Cc1ccc(O)cc1)NC(=O)[C@@H]1CSSC[C@H](NC(=O)[C@@H](NC(=O)[C@H](C)N)C(C)C)C(=O)N[C@@H](CCCNC(=N)N)C(=O)N1)C(=O)N[C@H](C(=O)N[C@H]1CSSC[C@@H](C(=O)N[C@@H](CCCNC(=N)N)C(=O)O)NC(=O)[C@H](Cc2ccc(O)cc2)NC1=O)C(C)C [DvirARP] (H-AVCRCYRRARNAIVCYCR-OH; disulfide 3-5, 15-17; N-terminus and C-terminus assumed)
[1]
  CD signature band around 230 nm (cation–π interaction) with temperature: decreased with the temperature increase
  CD signature band at 206 nm (3_10-helix) with temperature: overall retained
[2]; peptide dissolved in 50% haemolymph serum from DvWT female adults
  Antibacterial activity in inhibition zone assay against S. aureus CGMCC 1.89: no detectable antibacterial activity
[2]; peptide dissolved in 50% haemolymph serum from DvdelARP female adults
  Antibacterial activity in inhibition zone assay against S. aureus CGMCC 1.89: no detectable antibacterial activity
[2]; peptide dissolved in insect saline (pH 7.2)
  Antibacterial activity in inhibition zone assay against S. aureus CGMCC 1.89: no detectable antibacterial activity
[3]
  Binding of S15 DNA fragment (EMSA): not able to bind
[4]; Bacillus CGMCC 1.0459, pH 7
  Lethal concentration CL: 17.68 µM
[4]; inhibition-zone assay, 0.8% agar, 2 µL peptide per 2-mm well, peptide in 5 mM PB pH 7.0, overnight, Bacillus megaterium CGMCC 1.0459
  Lethal concentration CL: > 10 µM
[5]; CGMCC 1.0290, pH 7
  Lethal concentration CL: 10.77 µM
[5]; inhibition-zone assay, 0.8% agar, 2 µL peptide per 2-mm well, peptide in 5 mM PB pH 7.0, overnight, Micrococcus luteus CGMCC 1.0290
  Lethal concentration CL: > 10 µM
